From patent publication US20110178104A1, “Anti-Heparin Compounds” (POLYMEDIX INC., priority 2010, published 2011)

Experiments:
[1] = test system: unfractionated heparin (UFH); experiment: aPTT clotting assay, UFH 0.2 U/mL in plasma (Example 7); type: biochemical; details: UFH 0.2 U/mL in plasma
Method: aPTT clotting Assay. Unfractionated heparin was mixed with plasma at a final concentration of 0.2 U/mL. […] The ACL Elite Hemostasis analyzer (Beckman Coulter™) was used to add aPTT reagent (HemosIL SynthASil) to supplemented plasma. Clotting was initiated by addition of CaCl2 and time to clot was recorded.

fondaparinux (FONDAPX) = experiment: FXa chromogenic assay (absence of plasma), fondaparinux; details: fondaparinux 0.02 μg/mL, absence of plasma
enoxaparin (ENOX) = experiment: FXa chromogenic assay (absence of plasma), enoxaparin; details: enoxaparin 0.1 μg/mL, absence of plasma
Method: Human antithrombin was mixed with an anticoagulant agent (a LMWH or fondaparinux); final concentrations were 0.22 μg/mL for the LMWHs and 0.07 μg/mL for fondaparinux. […] Absorbance was read every 30 seconds over a 4 minute period in a SpectraMax 250 instrument (Molecular Devices, Inc.). EC50 values are determined by a curve-fit program (SoftMax Pro) using the following formula:
FXa Chromogenic Assay (absence of plasma). Human antithrombin was mixed with an anticoagulant (a LMWH or fondaparinux); final concentrations were 0.1 μg/mL for the LMWHs and 0.02 μg/mL for fondaparinux. […] Absorbance was read every 30 seconds over a 4 minute period in a SpectraMax 250 instrument (Molecular Devices Inc.™) The slope of absorbance vs time was calculated for each compound concentration. EC50 values were determined using a curve fit program (GraphPad Prism 5).

Compound	UFH (aPTT) EC50 [1]	FONDAPX (FXa) EC50 (fondaparinux (FONDAPX))	ENOX (FXa) EC50 (enoxaparin (ENOX)) [µg/mL]
COc1cc(OC)c(C(=O)Nc2cc(C(F)(F)F)cc(NC(=O)CCCCNC(=N)N)c2SCCN)cc1C(=O)Nc1cc(C(F)(F)F)cc(NC(=O)CCCCNC(=N)N)c1SCCN [Compound 1]	inactive	inactive	0.18
COc1cc(OC)c(C(=O)N[C@H]2CC[C@H](NC(=O)c3cc(C(=O)NCCN(C)C)c(OCCCCCN)cc3OCCCCCN)CC2)cc1C(=O)NC1CCC(NC(=O)c2cc(C(=O)NCCN(C)C)c(OCCCCCN)cc2OCCCCCN)CC1 (some centres unmarked) [Compound 2]	6.25 µg/mL	inactive	2.26
COc1cc(OC)c(C(=O)N[C@H]2CC[C@H](NC(=O)c3cc(C(=O)NCCN(C)C)c(OCCCCCNC(=N)N)cc3OCCCCCNC(=N)N)CC2)cc1C(=O)NC1CCC(NC(=O)c2cc(C(=O)NCCN(C)C)c(OCCCCCNC(=N)N)cc2OCCCCCNC(=N)N)CC1 (some centres unmarked) [Compound 3]	1.76 µg/mL	1.34 µg/mL	0.25
CN(C)CCNC(=O)c1cc(C(=O)NCCN(C)C)c(OCCCCCN)cc1OCCCCCN [Compound 4]	inactive	84.66 µg/mL	47.94
CN(C)CCNC(=O)c1cc(C(=O)N[C@H]2CC[C@H](NC(=O)c3cc(C(=O)NCCN(C)C)c(OCCCCCN)cc3OCCCCCN)CC2)c(OCCCCCN)cc1OCCCCCN [Compound 5]	19.76 µg/mL	inactive	23.71
N=C(N)NCCCCC(=O)Nc1cc(C(F)(F)F)cc(NC(=O)c2cc(C(=O)Nc3cc(C(F)(F)F)cc(NC(=O)CCCCNC(=N)N)c3SCCN)ncn2)c1SCCN [Compound 6]	29.11 µg/mL	inactive	0.57
COc1ccc(NC(=O)[C@H](CCCNC(=N)N)NC(=O)c2cc(NC(=O)[C@H](CCCNC(=N)N)NC(=O)c3cc(NC(=O)[C@H](CCCNC(=N)N)NC(=O)c4cc(NC(=O)[C@@H](N)CCCNC(=N)N)ccc4OC)ccc3OC)ccc2OC)cc1C(N)=O [Compound 7]	1.84 µg/mL	1.49 µg/mL	0.21
N=C(N)NCCC[C@@H](N)C(=O)Nc1ccc(OCCNC(=N)N)c(C(=O)N[C@H](CCCNC(=N)N)C(=O)Nc2ccc(OCCNC(=N)N)c(C(=O)N[C@H](CCCNC(=N)N)C(=O)Nc3ccc(OCCNC(=N)N)c(C(N)=O)c3)c2)c1 [Compound 9]	5.35 µg/mL	40.16 µg/mL	2.90
COc1ccc(NC(=O)[C@@H](CCCNC(=N)N)NC(=O)c2cc(NC(=O)[C@@H](CCCNC(=N)N)NC(=O)c3cc(NC(=O)[C@@H](CCCNC(=N)N)NC(=O)c4cc(NC(=O)[C@H](N)CCCNC(=N)N)ccc4OC)ccc3OCCNC(=N)N)ccc2OCCNC(=N)N)cc1C(N)=O [Compound 11]	5.79 µg/mL	7.04 µg/mL	1.66
N=C(N)NCCC[C@@H](N)C(=O)Nc1cccc(C(=O)N[C@H](CCCNC(=N)N)C(=O)Nc2cccc(C(=O)N[C@H](CCCNC(=N)N)C(=O)Nc3cccc(C(=O)N[C@H](CCCNC(=N)N)C(=O)Nc4cccc(C(N)=O)n4)n3)n2)n1 [Compound 65]	4.48 µg/mL		16.29
COc1cc(OC)c(C(=O)N[C@H]2CC[C@H](NC(=O)c3cc(C(=O)NCCN(C)C)c(OCCCCCN)cc3OCCCCCN)CC2)cc1C(=O)NCCN(C)C [Compound 86]	inactive	>90 µg/mL	
COc1ccc(NC(=O)[C@H](CCCCN)NC(=O)c2cc(NC(=O)[C@H](CCCCN)NC(=O)c3cc(NC(=O)[C@H](CCCCN)NC(=O)c4cc(NC(=O)[C@@H](N)CCCCN)ccc4OC)ccc3OCC(=O)O)ccc2OC)cc1C(N)=O [Compound 118]	3.14 µg/mL		
